Experimental data taken from patent US11945796B2, “Substituted pyridine derivatives as SARM1 inhibitors” (Nura Bio, Inc., priority 2020, dated 2024).

Biological target: T1, human SARM1(50-724) (Homo sapiens, UniProt Q6SZW1)
T1 construct: 40 nM human SARM1(50-724)
T1 sequence (Q6SZW1 50-724): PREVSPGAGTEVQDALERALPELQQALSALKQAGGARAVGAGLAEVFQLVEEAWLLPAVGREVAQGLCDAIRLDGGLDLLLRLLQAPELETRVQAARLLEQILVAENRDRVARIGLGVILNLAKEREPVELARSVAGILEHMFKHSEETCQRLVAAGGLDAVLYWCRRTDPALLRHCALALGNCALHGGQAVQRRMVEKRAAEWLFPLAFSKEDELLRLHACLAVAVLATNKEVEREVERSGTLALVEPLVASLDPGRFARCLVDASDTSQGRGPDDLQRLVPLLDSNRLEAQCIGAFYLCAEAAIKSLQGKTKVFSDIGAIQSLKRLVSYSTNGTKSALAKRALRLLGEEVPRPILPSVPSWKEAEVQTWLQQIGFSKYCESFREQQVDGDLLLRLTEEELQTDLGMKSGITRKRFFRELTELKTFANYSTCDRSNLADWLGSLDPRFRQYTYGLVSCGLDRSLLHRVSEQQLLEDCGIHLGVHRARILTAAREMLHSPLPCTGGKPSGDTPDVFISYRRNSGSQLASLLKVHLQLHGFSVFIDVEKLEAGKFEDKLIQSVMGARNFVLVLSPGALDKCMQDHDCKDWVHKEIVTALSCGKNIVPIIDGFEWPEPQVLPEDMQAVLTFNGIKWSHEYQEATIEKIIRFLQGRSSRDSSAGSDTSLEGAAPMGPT
Experiment: SARM1 NADase biochemical assay (HPLC peak areas of NAD and NAM)
Conditions: for Avg NAD % inhibition at 50 μM / Avg NAM % inhibition at 50 μM: 50 μM compound; for Avg NAD % inhibition at 50 μM: NAD peak area; for Avg NAM % inhibition at 50 μM: NAM peak area; for IC50: dose-response, 1:3 serial dilution from 100 μM, 40 nM SARM1, 0.3 mM NMN, 20 μM NAD, 60 min rt

| Substance | Avg NAD % inhibition at 50 μM | Avg NAM % inhibition at 50 μM | IC50 |
| --- | --- | --- | --- |
| (R)-4-(1-(1-(2,2-Difluoroethyl)-1H-pyrazol-3-yl)ethyl-2,2,2-d3)pyridine and (S)-4-(1-(1-(2,2-Difluoroethyl)-1H-pyrazol-3-yl)ethyl-2,2,2-d3)pyridine [Example 114] | * (% Inhibition 0-50%) | * (% Inhibition 0-50%) | – |
| (R)-4-(1-(1-(2,2-Difluoroethyl)-1H-pyrazol-3-yl)ethyl-2,2,2-d3)pyridine and (S)-4-(1-(1-(2,2-Difluoroethyl)-1H-pyrazol-3-yl)ethyl-2,2,2-d3)pyridine [Example 114a] | – | – | 1000 to 10000 nM |
| (S)-2-(1-(1-(Pyridin-4-yl)ethyl)-1H-pyrazol-3-yl)acetonitrile and (R)-2-(1-(1-(Pyridin-4-yl)ethyl)-1H-pyrazol-3-yl)acetonitrile [Example 27] | – | – | 1000 to 10000 nM |
| (S)-2-((1-(1-(Pyridin-4-yl)ethyl)-1H-pyrazol-3-yl)amino)acetonitrile and (R)-2-((1-(1-(Pyridin-4-yl)ethyl)-1H-pyrazol-3-yl)amino)acetonitrile [Example 7] | – | – | 1000 to 10000 nM |
| (S)-4-(1-(1-(2,2,2-Trifluoroethyl)-1H-pyrazol-3-yl)ethyl)pyridine and (R)-4-(1-(1-(2,2,2-Trifluoroethyl)-1H-pyrazol-3-yl)ethyl)pyridine [Example 13a] | – | – | < 1000 nM |
| (S)-4-(1-(1-(2,2,2-Trifluoroethyl)-1H-pyrazol-3-yl)ethyl)pyridine and (R)-4-(1-(1-(2,2,2-Trifluoroethyl)-1H-pyrazol-3-yl)ethyl)pyridine [Example 13b] | ** (51-100%) | ** (51-100%) | – |
| (S)—N-(2,2-Difluoroethyl)-1-(1-(pyridin-4-yl)ethyl)-1H-pyrazol-3-amine and (R)—N-(2,2-Difluoroethyl)-1-(1-(pyridin-4-yl)ethyl)-1H-pyrazol-3-amine [Example 8a] | * (% Inhibition 0-50%) | * (% Inhibition 0-50%) | – |
| (S)—N-(2,2-Difluoroethyl)-1-(1-(pyridin-4-yl)ethyl)-1H-pyrazol-3-amine and (R)—N-(2,2-Difluoroethyl)-1-(1-(pyridin-4-yl)ethyl)-1H-pyrazol-3-amine [Example 8b] | – | – | < 1000 nM |
